This note sets out measurements from patent EP0802730B1, “PESTICIDAL COMPOUNDS” (BTG INTERNATIONAL LIMITED, priority 1995, dated 1996).

In assay [1] the test system is Myzus persicae, extremely resistant strain (794Jz). The assay is described as follows: Aphid dip test, resistant strain. The assay is classed as in vivo. The following applies: read-out: % mortality corrected for control data.
Assay [2] relates to resistant strain of whitefly (Ned 1/2). Put plainly: Whitefly vial test, resistant strain Ned 1/2. Format: in vivo. The following applies: Bemisia tabaci, 48 h, read-out: BT (Ned 1/2) (LC50). As for the experimental part:
Acetone solutions (0.100 ml) of the test compounds were placed in 10 ml glass vials and evaporated with rotation to deposit a film of the compound. Thirty adult whiteflies were placed inside the vial, then after 60 minutes, the treated insects were transferred onto untreated cotton leaf discs which were kept moist on a bed of agar gel. The temperature was maintained at 25°C and mortality assessed after 48 hours. Three replicates were used at each of 5 to 7 dose levels per compound. LC50 values (ppm solution) were calculated by using a computer software package ("Polo-PC available from LeOra Software, Berkeley, California) (See M.R. Cahill and B. Hackett in Proceedings Brighton Crop Protection Conference, 1992). The test was carried out using a susceptible strain of whitefly (SUD-S) which was collected in Sudan in 1978 from cotton.
The whitefly activity test with (BT (SUD-S)) was repeated using a resistant strain of whitefly (Ned 1/2).

≈ marks a conversion by molar mass, not a printed value.

For orientation: mortality means the percentage killed. Consider `CC(C)(C)C1=C(O)C(=O)c2ccccc2C1=O` [Example 3, 2-(t-butyl)-3-hydroxy-naphthalene-1,4-dione], for which, in assay [1], the mortality at 40 ppm was found to be 10%, the mortality at 100 ppm was found to be 13% and the mortality at 250 ppm came to 87%.
On to `CCC(C)(C)C1=C(O)C(=O)c2ccccc2C1=O` [Example 1, 2-(1,1-dimethylpropyl)-3-hydroxynaphthalene-1,4-dione], for which, in assay [1], the mortality at 100 ppm came out at 10% and the mortality at 250 ppm came to 43%.
On the same counts, the results for `CCC(C)(C)C1=C(OC(C)=O)C(=O)c2ccccc2C1=O` [Example 2, 2-(1,1-dimethylpropyl)-3-ethanoyloxy-naphthalene-1,4-dione] are 17% and 47%.
Take `CC1(C2=C(O)C(=O)c3ccccc3C2=O)CCCCC1` [Example 25, 2-hydroxy-3-(1'-methylcyclohexyl)-naphthalene-1,4-dione]: in assay [1], the mortality at 40 ppm is 10%, the mortality at 100 ppm came to 27% and the mortality at 250 ppm came out at 79%. The LC50 in assay [2] turned out to be 0.1 µg/mL (≈ 0.37 µM).
Consider `CC(C)(C)C1CCC(C2=C(O)C(=O)c3ccccc3C2=O)CC1` (stereo not drawn) [Compound B, 2-hydroxy-3-(4-t-butylcyclohexyl)-naphthalene-1,4-dione, reference compound], for which, in assay [2], the LC50 was found to be 100 µg/mL (≈ 320 µM).
